Results reported in paper PMC11596392, “Enhanced Antibacterial, Anti-Inflammatory, and Antibiofilm Activities of Tryptophan-Substituted Peptides Derived from Cecropin A-Melittin Hybrid Peptide BP100” (Molecules, 2024).
Converted amounts (≈) assume the structure as drawn. Where two headings read alike, the source gives them in different places. Where no end group is shown, it is not given here.

Experiments:
VREF (ATCC 51559) = assay type: cell-based, vancomycin-resistant Enterococcus faecium; settings: broth microdilution in MHB, 37 °C, 24 h, 100% inhibition of growth
Description: (§1) The antibacterial efficacy of the synthesized peptides was evaluated by determining the minimal inhibitory concentrations (MICs) against six standard bacterial strains and five drug-resistant bacterial strains using the Clinical and Laboratory Standards Institute (CLSI) microdilution method. Melittin served as the positive control.
(§2) The minimal inhibitory concentrations (MICs) of the peptides against bacterial strains were determined using a modified broth-microdilution method in accordance with the National Committee for Clinical Laboratory Standards (NCCLS) guidelines. Overnight cultures were diluted in cation-adjusted Mueller–Hinton Broth (MHB) to achieve an inoculum density of 2 × 10^6 CFU/mL. A two-fold serial dilution of the peptide solution (100 μL) was introduced into microtiter plates, followed by the addition of 100 μL of bacterial suspension. The plates were then incubated at 37 °C for 24 h to determine the MICs. Wells containing only culture media served as negative controls, while those with added bacteria functioned as positive controls. The MIC, expressed in μM, was defined as the lowest peptide concentration that prevented visible bacterial growth. This protocol was also employed to determine MICs in the presence of physiological salts (150 mM of NaCl, 4.5 mM of KCl, 6 μM of NH4Cl, 1 mM of MgCl2, 2.5 mM of CaCl2, and 4 μM of FeCl3) and 20% human serum to assess the peptides’ efficacy under conditions more closely resembling physiological environments. All experiments were conducted in triplicate and repeated three times independently to ensure reproducibility and statistical significance of the results.

[1] = test system: S. epidermidis (KCTC 1917); assay type: cell-based, Staphylococcus epidermidis; settings: broth microdilution in MHB, 37 °C, 24 h, 100% inhibition of growth
Description: as §1, §2

B. subtilis (KCTC 3068) = assay type: cell-based, Bacillus subtilis; settings: broth microdilution in MHB, 37 °C, 24 h, 100% inhibition of growth
Description: as §1, §2

[2] = test system: sheep red blood cells (sRBCs); assay: Hemolytic activity assay; assay type: cell-based; settings: 4% (v/v) sheep red blood cells in PBS, 1 h, 37 °C; 1 to 256 μM tested
Description: To assess toxicity in mammalian cells, we evaluated the hemolytic activity of the peptides on sheep red blood cells (sRBCs). […] The therapeutic index (TI), a measure commonly employed to evaluate the cell selectivity of antibacterial agents, was calculated as the ratio of the concentration causing 10% hemolysis of sRBCs (HC10) to the GM [19, 20, 21, 22].
The hemolytic activity of the peptides was tested through hemolysis assay of sheep red blood cells (sRBCs). The sRBCs were diluted in PBS to achieve a 4% (v/v) concentration. Subsequently, 100 μL of peptide solutions, ranging from 1 to 256 μM, was dispensed into a 96-well plate containing an equal volume of the erythrocyte suspension. After incubating for 1 h at 37 °C and centrifuging at 1000× g for 10 min, 100 μL of the supernatant was transferred to a new 96-well plate. Hemoglobin release was quantified using a microplate reader at a wavelength of […]. The percentage of hemolysis was calculated using percentage hemolysis = 100 × [[…]], where A represents the absorbance of the peptide-treated sample at 540 nm, A0 corresponds to the absorbance value representing 0% hemolysis in PBS, and At corresponds to the absorbance value representing 100% hemolysis in 0.1% Triton X-100.

[3] = test system: S. typhimurium (KCTC 1926); assay type: cell-based, Salmonella typhimurium; settings: broth microdilution in MHB, 37 °C, 24 h, 100% inhibition of growth
Description: as §1, §2

S. aureus (KCTC 1621) = assay type: cell-based, Staphylococcus aureus
Description: (§3) To comprehensively evaluate the therapeutic potential of BP100 and the five selected analogs, we assessed their capacity to maintain antibacterial activity in the presence of physiological salts and serum (Table 4). Antibacterial assays were conducted in an environment supplemented with either […] fresh human serum or physiological salts. […] This enhanced stability in physiologically relevant conditions may have important implications for the potential therapeutic applications of these peptide analogs.
as §2

E. coli (KCTC 1682) [4] = assay type: cell-based, Escherichia coli; settings: 10% Human Serum
E. coli (KCTC 1682) [5] = assay type: cell-based, Escherichia coli
Description: as §3, §2

Molecule | Minimal Inhibitory Concentration (MIC) (VREF (ATCC 51559)) [µM] | Minimal Inhibitory Concentration (MIC) [1] [µM] | Minimal Inhibitory Concentration (MIC) (B. subtilis (KCTC 3068)) [µM] | HC10 (peptide concentration that caused 10% hemolysis) [2] [µM] | Minimal Inhibitory Concentration (MIC) [3] [µM] | MIC (S. aureus (KCTC 1621); 4 μM of FeCl3) [µM] | MIC (S. aureus (KCTC 1621); 6 μM of NH4Cl) [µM] | MIC (S. aureus (KCTC 1621); 1 mM of MgCl2) [µM] | MIC (S. aureus (KCTC 1621); 2.5 mM of CaCl2) [µM] | MIC (S. aureus (KCTC 1621); 4.5 mM of KCl) [µM] | MIC (S. aureus (KCTC 1621); 150 mM of NaCl) [µM] | MIC (S. aureus (KCTC 1621); Control, absence of salts) [µM] | MIC (E. coli (KCTC 1682) [4]) [µM] | MIC (E. coli (KCTC 1682) [5]; 4 μM of FeCl3) [µM] | MIC (E. coli (KCTC 1682) [5]; 6 μM of NH4Cl) [µM] | MIC (E. coli (KCTC 1682) [5]; 1 mM of MgCl2) [µM] | MIC (E. coli (KCTC 1682) [5]; 2.5 mM of CaCl2) [µM] | MIC (E. coli (KCTC 1682) [5]; 4.5 mM of KCl) [µM] | MIC (E. coli (KCTC 1682) [5]; 150 mM of NaCl) [µM] | MIC (E. coli (KCTC 1682) [5]; Control, absence of salts) [µM]
CC[C@H](C)[C@H](NC(=O)[C@H](CCCCN)NC(=O)[C@H](CCCCN)NC(=O)[C@H](Cc1c[nH]c2ccccc12)NC(=O)[C@H](CC(C)C)NC(=O)[C@H](CCCCN)NC(=O)[C@@H](N)CCCCN)C(=O)N[C@@H](CC(C)C)C(=O)N[C@@H](CCCCN)C(=O)N[C@@H](Cc1ccc(O)cc1)C(=O)N[C@@H](CC(C)C)C(N)=O [BP1] | 64 | 8 | 8 | >256 | 8 | – | – | – | – | – | – | – | – | – | – | – | – | – | – | –
CC(C)C[C@H](NC(=O)[C@H](Cc1ccc(O)cc1)NC(=O)[C@H](CCCCN)NC(=O)[C@H](CC(C)C)NC(=O)[C@H](Cc1c[nH]c2ccccc12)NC(=O)[C@H](CCCCN)NC(=O)[C@H](CCCCN)NC(=O)[C@H](Cc1ccccc1)NC(=O)[C@H](CC(C)C)NC(=O)[C@H](CCCCN)NC(=O)[C@@H](N)CCCCN)C(N)=O [BP2] | 128 | 2 | 8 | >256 | 8 | – | – | – | – | – | – | – | – | – | – | – | – | – | – | –
CC[C@H](C)[C@H](NC(=O)[C@H](CCCCN)NC(=O)[C@H](CCCCN)NC(=O)[C@H](Cc1ccccc1)NC(=O)[C@H](CC(C)C)NC(=O)[C@H](CCCCN)NC(=O)[C@@H](N)CCCCN)C(=O)N[C@@H](Cc1c[nH]c2ccccc12)C(=O)N[C@@H](CCCCN)C(=O)N[C@@H](Cc1ccc(O)cc1)C(=O)N[C@@H](CC(C)C)C(N)=O [BP3] | 64 | 8 | 16 | >256 | 4 | – | – | – | – | – | – | – | – | – | – | – | – | – | – | –
CC[C@H](C)[C@H](NC(=O)[C@H](CCCCN)NC(=O)[C@H](CCCCN)NC(=O)[C@H](Cc1ccccc1)NC(=O)[C@H](CC(C)C)NC(=O)[C@H](CCCCN)NC(=O)[C@@H](N)CCCCN)C(=O)N[C@@H](CC(C)C)C(=O)N[C@@H](CCCCN)C(=O)N[C@@H](Cc1c[nH]c2ccccc12)C(=O)N[C@@H](CC(C)C)C(N)=O [BP4] | 16 | 8 | 4 | >256 | 2 | – | – | – | – | – | – | – | – | – | – | – | – | – | – | –
CC[C@H](C)[C@H](NC(=O)[C@H](CCCCN)NC(=O)[C@H](CCCCN)NC(=O)[C@H](Cc1ccccc1)NC(=O)[C@H](CC(C)C)NC(=O)[C@H](CCCCN)NC(=O)[C@@H](N)CCCCN)C(=O)N[C@@H](CC(C)C)C(=O)N[C@@H](CCCCN)C(=O)N[C@@H](Cc1ccc(O)cc1)C(=O)N[C@@H](CC(C)C)C(N)=O [BP100] | 64 | 4 | 8 | >256 | 4 | 16 (≈ 22.7 µg/mL) | 16 (≈ 22.7 µg/mL) | 16 (≈ 22.7 µg/mL) | 16 (≈ 22.7 µg/mL) | 16 (≈ 22.7 µg/mL) | 16 (≈ 22.7 µg/mL) | 4 | 16 (≈ 22.7 µg/mL) | 16 (≈ 22.7 µg/mL) | 16 (≈ 22.7 µg/mL) | 16 (≈ 22.7 µg/mL) | 16 (≈ 22.7 µg/mL) | 16 (≈ 22.7 µg/mL) | 16 (≈ 22.7 µg/mL) | 4
KKLFKKILKWW-NH2 [BP12] | 128 | 4 | 8 | >256 | 4 | – | – | – | – | – | – | – | – | – | – | – | – | – | – | –
KKLFKKIWKWL-NH2 [BP11] | 16 | 4 | 8 | >256 | 2 | 4 | 4 | 4 | 16 | 4 | 8 | 4 | 8 | 4 | 4 | 8 | 16 | 8 | 16 | 8
KKLFKKWLKYW-NH2 [BP10] | 128 | 8 | 16 | >256 | 8 | – | – | – | – | – | – | – | – | – | – | – | – | – | – | –
KKLFKKWWKWL-NH2 [BP16] | 64 | 16 | 16 | >256 | 16 | – | – | – | – | – | – | – | – | – | – | – | – | – | – | –
KKLFKKWWKYL-NH2 [BP9] | 64 | 4 | 16 | >256 | 4 | – | – | – | – | – | – | – | – | – | – | – | – | – | – | –
KKLWKKILKWL-NH2 [BP8] | 16 | 2 | 8 | >256 | 4 | 4 | 4 | 4 | 4 | 4 | 4 | 4 | 4 | 4 | 8 | 8 | 16 | 4 | 8 | 2
KKLWKKIWKYL-NH2 [BP7] | 32 | 2 | 4 | >256 | 2 | – | – | – | – | – | – | – | – | – | – | – | – | – | – | –
KKLWKKIWKYW-NH2 [BP15] | 64 | 4 | 4 | >256 | 4 | – | – | – | – | – | – | – | – | – | – | – | – | – | – | –
KKLWKKWLKYW-NH2 [BP14] | 64 | 2 | 4 | >256 | 8 | – | – | – | – | – | – | – | – | – | – | – | – | – | – | –
KKWFKKILKWL-NH2 [BP6] | 8 | 2 | 4 | >256 | 4 | 8 | 4 | 4 | 4 | 4 | 4 | 2 | 4 | 16 | 16 | 8 | 16 | 4 | 8 | 4
